In US8664407B2, “Chemical linkers with single amino acids and conjugates thereof” (Medarex, LLC, priority 2007, dated 2014):

Legend:
786-O = test: In vivo study: 786-O tumor xenograft, toxin-conjugated anti-CD70 HuMAb 2H5; settings: 0.03 μmol toxin dosage, IP, dosed on Day 0; CD70.1 antibody conjugates; 786-O tumors in male CB17.SCID mice
Experimental: 786-O (ATCC Accession No. CRL-1932) cells were expanded in vitro using standard laboratory procedures. Male CB17.SCID mice (Taconic, Hudson, N.Y.) between 6-8 weeks of age were implanted subcutaneously in the right flank with 2.5 million 786-O in 0.2 ml of PBS/Matrigel (1:1) per mouse. Mice were weighed and measured for tumors three dimensionally using an electronic caliper twice weekly after implantation. Tumor volumes were calculated as height×width×length. Mice with tumors averaging 200 mm^3 were randomized into treatment groups. The mice were dosed intraperitoneally with PBS vehicle, toxin-conjugated isotype control antibody or toxin-conjugated anti-CD70 HuMAb 2H5 on Day 0. Each group contained 8 mice.
FIGS. 1, 2, 5, and 6 show the mean tumor volume versus days past dosing and FIGS. 3, 4, 7, and 8 show the median tumor volume versus days past dosing (0.03 μmol—FIGS. 1, 3, 5, and 7; 0.005 μmol—FIGS. 2, 4, 6, and 8).

[1] = molecular target: T1, bovine spleen cathepsin B (Bos taurus, UniProt P07688); test: Cathepsin B mediated cleavage of single amino acid linkers (RP-HPLC, A340); assay type: biochemical; settings: cysteine modified compound, activated cathepsin B, pH 5.0, 37° C.
T1 construct: bovine spleen cathepsin B (Sigma product code C-6286) was prepared by dissolving lyophilized solid; purchased Sigma C-6286; host or cells: bovine spleen (tissue-derived)
Experimental: (§1) A panel of single amino acid compounds, each differing with respect to amino acid composition but of otherwise similar structure, was assayed for cathepsin B activity. The following compounds were tested: compounds A,B,C,D,E and F. The appearance of cathepsin B-mediated products was monitored by application to RP-HPLC with quantitation of drug products by their absorbance at 340 nm.
(§2) Cathepsin B Enzyme Assay: A stock solution of bovine spleen cathepsin B (Sigma product code C-6286) was prepared by dissolving lyophilized solid (6 mg at 56% protein) in 25 mM sodium acetate/1 mM EDTA pH 5.0 buffer (10 mL). Enzyme activation was accomplished by mixing the stock solution (50 uL) with activation buffer (100 ul) comprised of 30 mM DTT/15 mM EDTA, followed by incubation at room temperature for 15 minutes. The activated cathepsin B was diluted 1:1 with a solution of 25 mM sodium acetate/1 mM EDTA, pH 5.0 prior to use. To assay for drug release, cysteine modified compound (4 uL of 2.5 mM solution in DMSO) was added to 25 mM sodium acetate/1 mM EDTA pH 5.0 buffer (86 uL) and activated cathepsin B (10 uL at 3.6 U/mL). Samples were incubated at 37° C. for appropriate time points and stopped with methanol (100 uL).
(§3) Compounds samples (40 uL) were applied to a Waters 2795 HPLC system fitted with a reverse phase column (Waters Nova-pak C18, 3.9×150 mm column, product code WAT086344). Sample chromatography was accomplished using a dual mobile phase system comprised of water/0.1% TFA (A buffer) and acetonitrile/0.1% TFA (B buffer) with a gradient elution of 10-100% B buffer over 20 min at 1.0 mL/min. compounds were detected by its absorbance at 340 nm (A340).

cathepsin B = molecular target: T2, cathepsin B (Bos taurus, UniProt P07688); test: as above; assay type: biochemical, bovine; settings: bovine, activated bovine spleen cathepsin B (isolated enzyme), cysteine modified compound, pH 5.0, 37° C., read-out: Approx. substrate half-life (converted)
T2 construct: bovine spleen cathepsin B (Sigma product code C-6286) was prepared by dissolving lyophilized solid; purchased Sigma C-6286; host or cells: bovine spleen (tissue-derived)
Experimental: as §1, §2, §3

Row | Structure (SMILES) | Efficacy (tumor volume versus days past dosing), descending order (786-O) | Cathepsin B cleavage [1] | Cathepsin B cleavage ([1]; listed as compound D) | half-life at 100 µM (cathepsin B) [h] | Cathepsin B cleavage ([1]; listed as compound A)
1 | CN1CCN(C(=O)Oc2cc3c(c4ccccc24)[C@H](CCl)CN3C(=O)c2cc3cc(NC(=O)c4ccc(NC(=O)[C@H](CCC(=O)O)NC(=O)CCCCCN5C(=O)C=CC5=O)cc4)ccc3[nH]2)CC1 [Compound F] | Compound E>Compound F>Compound A>Compound C, Compound D>Compound B>Compound G | No | – | – | –
2 | CN1CCN(C(=O)Oc2cc3c(c4ccccc24)[C@H](CCl)CN3C(=O)c2cc3cc(NC(=O)c4ccc(NC(=O)[C@H](CCCNC(N)=O)NCCNC(=O)CCCCCN5C(=O)C=CC5=O)cc4)ccc3[nH]2)CC1 [Compound B] | Compound E>Compound F>Compound A>Compound C, Compound D>Compound B>Compound G | No | – | – | –
3 | CN1CCN(C(=O)Oc2cc3c(c4ccccc24)[C@H](CCl)CN3C(=O)c2cc3cc(NC(=O)c4ccc(NC(=O)[C@H](CO)NC(=O)CCCN5C(=O)C=CC5=O)cc4)ccc3[nH]2)CC1 [Compound D] | Compound E>Compound F>Compound A>Compound C, Compound D>Compound B>Compound G | No | cleaved by cathepsin B | – | –
4 | CN1CCN(C(=O)Oc2cc3c(c4ccccc24)[C@H](CCl)CN3C(=O)c2cc3cc(NC(=O)c4ccc(NC(=O)[C@H](CCCCN)NC(=O)CCCCCN5C(=O)C=CC5=O)cc4)ccc3[nH]2)CC1 [Compound E] | Compound E>Compound F>Compound A>Compound C, Compound D>Compound B>Compound G | Yes | – | ~4 | –
5 | CN1CCN(C(=O)Oc2cc3c(c4ccccc24)[C@H](CCl)CN3C(=O)c2cc3cc(NC(=O)c4ccc(NC(=O)[C@H](CCCNC(N)=O)NC(=O)CCCCCN5C(=O)C=CC5=O)cc4)ccc3[nH]2)CC1 [Compound A] | Compound E>Compound F>Compound A>Compound C, Compound D>Compound B>Compound G | Yes | – | ~24 | cleaved by cathepsin B
6 | CN1CCN(C(=O)Oc2cc3c(c4ccccc24)[C@H](CCl)CN3C(=O)c2cc3c4c(ccc3[nH]2)N(C(=O)c2ccc(NC(=O)[C@H](CCCNC(N)=O)NC(=O)CCCCCN3C(=O)C=CC3=O)cc2)CC4)CC1 [Compound C] | Compound E>Compound F>Compound A>Compound C, Compound D>Compound B>Compound G | No | – | – | –
7 | CN1CCN(C(=O)Oc2cc3c(c4ccccc24)[C@H](CCl)CN3C(=O)c2cc3cc(NC(=O)c4ccc(NCC(=O)NCCNC(=O)CCCN5C(=O)C=CC5=O)cc4)ccc3[nH]2)CC1 [Compound G] | Compound E>Compound F>Compound A>Compound C, Compound D>Compound B>Compound G | – | – | – | –
